Mortality data for eight molecules are collected here from US9523100B2, “Pesticidal compositions and related methods” (DOW AGROSCIENCES LLC, priority 2013, dated 2016).

The test system of experiment [1] is Sweetpotato Whitefly-Crawler (WF) (Bemisia tabaci) (BEMITA). As to the kind of experiment: Insecticidal test for Sweetpotato Whitefly-Crawler (WF) in foliar spray assay on cotton plants. In kind it is in vivo. Conditions: 216 h, 200 ppm foliar spray on cotton plants, graded after 9 days, Abbott corrected % control, read-out: WF 200 ppm, % Control (or Mortality) rating. The method, boiled down:
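Cotton plants carrying 200–400 whitefly eggs sprayed to run-off on both leaf surfaces at 200 ppm (acetone/0.025% Tween 20), four plants per treatment. After 9 days at about 25 °C, live 3rd–4th instar nymphs counted; Abbott-corrected percent control versus solvent check.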

Experiment [2] relates to Green Peach Aphid (GPA) (Myzus persicae) (MYZUPE). As to the kind of experiment: Bioassay for Green Peach Aphid (GPA), foliar spray on cabbage seedlings. Conditions: 72 h, 200 ppm foliar spray on cabbage seedlings, graded after three days, Abbott corrected % control, read-out: GPA 200 ppm, % Control (or Mortality) rating. In kind it is in vivo. In a few lines: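 Cabbage seedlings infested with 20-50 GPA (wingless adults and nymphs) one day before spraying to runoff with 200 ppm compound; four pots per treatment. Live aphids counted after three days at ~25° C; percent control by Abbott's correction against solvent-sprayed plants.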

The mortality is the share of the test organisms that died. On to `CN(C(=O)CCN1CCSC1=O)c1cn(-c2cccnc2)nc1Cl` [Compound F38, N-(3-Chloro-1-(pyridin-3-yl)-1H-pyrazol-4-yl)-N-methyl-3-(2-oxothiazolidin-3-yl)propanamide], for which the mortality at 200 ppm in experiment [1] and in experiment [2] was 80 to 100% in each case.

As for `CCN(C(=O)C(C)O)c1cn(-c2cccnc2)nc1Cl` (stereo not shown) [Compound C13, N-(3-chloro-1-(pyridin-3-yl)-1H-pyrazol-4-yl)-N-ethyl-2-hydroxypropanamide], the mortality at 200 ppm in experiment [1] and in experiment [2] was 80 to 100% in each case.

In the case of `CCN(C(=O)CC1CNC1=O)c1cn(-c2cccnc2)nc1Cl` (stereo not shown) [Compound F71, N-(3-chloro-1-(pyridin-3-yl)-1H-pyrazol-4-yl)-N-ethyl-2-(2-oxoazetidin-3-yl)acetamide], the mortality at 200 ppm in experiment [1] and in experiment [2] was 80 to 100% in each case.

Turning to `CCN(C(=O)CCC1CCN(C(=O)OC(C)(C)C)C1=O)c1cn(-c2cccnc2)nc1Cl` (stereo not shown) [Compound F128, tert-butyl 3-(3-((3-chloro-1-(pyridin-3-yl)-1H-pyrazol-4-yl)(ethyl)amino)-3-oxopropyl)-2-oxopyrrolidine-1-carboxylate], the mortality at 200 ppm in experiment [1] and in experiment [2] was 80 to 100% throughout.

Turning to `CCN(C(=O)C1CCN(C(C)=O)CC1)c1cn(-c2cccnc2)nc1Cl` [Compound F61, 1-Acetyl-N-(3-chloro-1-(pyridin-3-yl)-1H-pyrazol-4-yl)-N-ethylpiperidine-4-carboxamide], the mortality at 200 ppm in experiment [1] lay within 0 to 80%; in experiment [2] it was 80 to 100%.

`CCN(C(=O)CC/C(C)=N/OCC(F)(F)F)c1cn(-c2cccnc2)nc1Cl` [Compound F51, (E/Z)-N-(3-Chloro-1-(pyridin-3-yl)-1H-pyrazol-4-yl)-N-ethyl-4-((2,2,2-trifluoroethoxy)imino) pentanamide]: the mortality at 200 ppm in experiment [1] and in experiment [2] was 80 to 100% throughout.

Take `O=C(CCC(=O)N(CC1CC1)c1cn(-c2cccnc2)nc1Cl)N1CCCCC1` [Compound F82, N-(3-Chloro-1-(pyridin-3-yl)-1H-pyrazol-4-yl)-N-(cyclopropylmethyl)-4-oxo-4-(piperidin-1-yl)butanamide]: the mortality at 200 ppm was in the range of 80 to 100% in experiment [1] and 0 to 80% in experiment [2].

`CCN(C(=O)CCC1CCN(CCC2CC2(F)F)C1=O)c1cn(-c2cccnc2)nc1Cl` (stereo not shown) [FA62, N-(3-Chloro-1-(pyridin-3-yl)-1H-pyrazol-4-yl)-3-(1-(2-(2,2-difluorocyclopropyl)ethyl)-2-oxopyrrolidin-3-yl)-N-ethylpropanamide]: the mortality at 200 ppm in experiment [1] and in experiment [2] was 80 to 100% throughout.
